Results as given in US9738634B2, “Heterocyclic amide compound and herbicide” (SYNGENTA PARTICIPATIONS AG, priority 2013, dated 2017).

What was measured:
Assay type in all cases: in vivo
barnyard grass [1] = test: Test Example 1: weedkilling efficacy, preemergent weed treatment in the submerged state; A: barnyard grass; details: treatment dosage 108.36 g/ha
Outline: (§1)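 Pots of alluvial soil flooded 4 cm deep, sown with barnyard grass, bulrush and oval-leafed pondweed and transplanted with 2.5-leaf rice. Emulsified compound applied to the water surface on sowing day at stated g/ha; greenhouse 25–30 °C, effects assessed 3 weeks after treatment.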

bulrush [2] = test: Test Example 1: weedkilling efficacy, preemergent weed treatment in the submerged state; B: bulrush; details: treatment dosage 108.36 g/ha
Outline: as §1

oval-leafed pondweed [3] = test: Test Example 1: weedkilling efficacy, preemergent weed treatment in the submerged state; C: oval-leafed pondweed; details: treatment dosage 108.36 g/ha
Outline: as §1

transplanted rice = test: Test Example 1: preemergent weed treatment in the submerged state, effect on crop; a: transplanted rice; details: treatment dosage 108.36 g/ha
Outline: as §1

barnyard grass [4] = test: Test Example 2: weedkilling efficacy, growth period weed treatment in the submerged state; A: barnyard grass; details: treatment dosage 108.36 g/ha
Outline: (§2)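 Barnyard grass, bulrush and oval-leafed pondweed sown in alluvial soil under 4 cm flooding, greenhouse 25 to 30° C. At 1-2 leaf stage, water-diluted emulsion applied to the water surface at stated g/ha dosages; effects scored 3 weeks later.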

bulrush [5] = test: Test Example 2: weedkilling efficacy, growth period weed treatment in the submerged state; B: bulrush; details: treatment dosage 108.36 g/ha
Outline: as §2

oval-leafed pondweed [6] = test: Test Example 2: weedkilling efficacy, growth period weed treatment in the submerged state; C: oval-leafed pondweed; details: treatment dosage 108.36 g/ha
Outline: as §2

crabgrass [7] = test: Test Example 3: weedkilling efficacy through soil treatment; D: crabgrass; details: treatment dosage 135.45 g/ha
Outline: (§3)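 Crop and weed responses were judged three weeks after a uniform surface spray of the water-diluted emulsion at the given g/ha rate. Seeds sat beneath about 1.5 cm of sterilized diluvial soil, and boxes stood in a greenhouse at 25 to 30° C.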

green foxtail [8] = test: Test Example 3: weedkilling efficacy through soil treatment; E: green foxtail; details: treatment dosage 135.45 g/ha
Outline: as §3

black-grass [9] = test: Test Example 3: weedkilling efficacy through soil treatment; H: black-grass; details: treatment dosage 135.45 g/ha
Outline: as §3

Italian ryegrass [10] = test: Test Example 3: weedkilling efficacy through soil treatment; I: Italian ryegrass; details: treatment dosage 135.45 g/ha
Outline: as §3

Indian mallow [11] = test: Test Example 3: weedkilling efficacy through soil treatment; K: Indian mallow; details: treatment dosage 135.45 g/ha
Outline: as §3

redroot pigweed [12] = test: Test Example 3: weedkilling efficacy through soil treatment; L: redroot pigweed; details: treatment dosage 135.45 g/ha
Outline: as §3

fig-leafed goosefoot [13] = test: Test Example 3: weedkilling efficacy through soil treatment; M: fig-leafed goosefoot; details: treatment dosage 135.45 g/ha
Outline: as §3

chickweed [14] = test: Test Example 3: weedkilling efficacy through soil treatment; N: chickweed; details: treatment dosage 135.45 g/ha
Outline: as §3

birds-eye speedwell [15] = test: Test Example 3: weedkilling efficacy through soil treatment; p: birds-eye speedwell; details: treatment dosage 135.45 g/ha
Outline: as §3

directly sown rice [16] = test: Test Example 3: soil treatment, effect on crop; b: directly sown rice; details: treatment dosage 135.45 g/ha
Outline: as §3

corn [17] = test: Test Example 3: soil treatment, effect on crop; c: corn; details: treatment dosage 135.45 g/ha
Outline: as §3

soybean [18] = test: Test Example 3: soil treatment, effect on crop; d: soybean; details: treatment dosage 135.45 g/ha
Outline: as §3

wheat [19] = test: Test Example 3: soil treatment, effect on crop; e: wheat; details: treatment dosage 135.45 g/ha
Outline: as §3

crabgrass [20] = test: Test Example 4: weedkilling efficacy by foliar treatment; D: crabgrass; details: treatment dosage 135.45 g/ha
Procedure: (§4) Testing of Weedkilling Efficacy by Foliar Treatment
(§5) Sterilized diluvial soil was introduced into 21 cm long, 13 cm wide, 7 cm deep plastic boxes, and seeds of crabgrass, green foxtail, barnyard grass, wild oat, black-grass, Italian ryegrass, common wind-grass, Indian mallow, redroot pigweed, fig-leafed goosefoot, chickweed, catchweed, birds-eye speedwell, corn, soybean, rice, wheat, beet and rapeseed were each spot-sown, and covered with about 1.5 cm of soil, then the plants were grown in a greenhouse at 25 to 30° C.
(§6) After they had grown for 14 days, emulsions of compounds of the present invention prepared according to compounding example 2 were diluted with water to give the specified dosages, and applied uniformly onto the stem and leaf parts with a small sprayer. 3 weeks after the pesticide treatment the effect on each type of plant was investigated on the basis of the assessment criteria of test example 1.
(§7) A: barnyard grass, B: bulrush, C: oval-leafed pondweed, D: crabgrass, E: green foxtail, F: barnyard grass, G: wild oat, H: black-grass, I: Italian ryegrass, J: common wind-grass, K: Indian mallow, L: redroot pigweed, M: fig-leafed goosefoot, N: chickweed, O: catchweed, p: birds-eye speedwell, a: transplanted rice, b: directly sown rice, c: corn, d: soybean, e: wheat, f: beet, g: rapeseed
(§8) Further, pesticide dosage (g/ha) indicates the concentration regulated such that treatment was with only the stated number of grams (g), when calculated per hectare (ha).

green foxtail [21] = test: Test Example 4: weedkilling efficacy by foliar treatment; E: green foxtail; details: treatment dosage 135.45 g/ha
Procedure: as §4, §5, §6, §7, §8

black-grass [22] = test: Test Example 4: weedkilling efficacy by foliar treatment; H: black-grass; details: treatment dosage 135.45 g/ha
Procedure: as §4, §5, §6, §7, §8

Italian ryegrass [23] = test: Test Example 4: weedkilling efficacy by foliar treatment; I: Italian ryegrass; details: treatment dosage 135.45 g/ha
Procedure: as §4, §5, §6, §7, §8

Indian mallow [24] = test: Test Example 4: weedkilling efficacy by foliar treatment; K: Indian mallow; details: treatment dosage 135.45 g/ha
Procedure: as §4, §5, §6, §7, §8

redroot pigweed [25] = test: Test Example 4: weedkilling efficacy by foliar treatment; L: redroot pigweed; details: treatment dosage 135.45 g/ha
Procedure: as §4, §5, §6, §7, §8

fig-leafed goosefoot [26] = test: Test Example 4: weedkilling efficacy by foliar treatment; M: fig-leafed goosefoot; details: treatment dosage 135.45 g/ha
Procedure: as §4, §5, §6, §7, §8

chickweed [27] = test: Test Example 4: weedkilling efficacy by foliar treatment; N: chickweed; details: treatment dosage 135.45 g/ha
Procedure: as §4, §5, §6, §7, §8

catchweed = test: Test Example 4: weedkilling efficacy by foliar treatment; O: catchweed; details: treatment dosage 135.45 g/ha
Procedure: as §4, §5, §6, §7, §8

birds-eye speedwell [28] = test: Test Example 4: weedkilling efficacy by foliar treatment; p: birds-eye speedwell; details: treatment dosage 135.45 g/ha
Procedure: as §4, §5, §6, §7, §8

directly sown rice [29] = test: Test Example 4: foliar treatment, effect on crop; b: directly sown rice; details: treatment dosage 135.45 g/ha
Procedure: as §4, §5, §6, §7, §8

corn [30] = test: Test Example 4: foliar treatment, effect on crop; c: corn; details: treatment dosage 135.45 g/ha
Procedure: as §4, §5, §6, §7, §8

soybean [31] = test: Test Example 4: foliar treatment, effect on crop; d: soybean; details: treatment dosage 135.45 g/ha
Procedure: as §4, §5, §6, §7, §8

wheat [32] = test: Test Example 4: foliar treatment, effect on crop; e: wheat; details: treatment dosage 135.45 g/ha
Procedure: as §4, §5, §6, §7, §8

beet = test: Test Example 4: foliar treatment, effect on crop; f: beet; details: treatment dosage 135.45 g/ha
Procedure: as §4, §5, §6, §7, §8

## CC1=C(c2ccccc2)C(=O)N(C(C)(C)C(=O)Nc2cccc(C)n2)CO1 [B-2-53]
Barnyard grass [1]
  A (barnyard grass) weedkilling efficacy grade: 5 (weed kill ratio 90% or more, (practically complete withering))
Bulrush [2]
  B (bulrush) weedkilling efficacy grade: 5 (weed kill ratio 90% or more, (practically complete withering))
oval-leafed pondweed [3]
  C (oval-leafed pondweed) weedkilling efficacy grade: 5 (weed kill ratio 90% or more, (practically complete withering))
Transplanted rice
  a (transplanted rice) effect on crop grade: 0 (weed kill ratio 5% or less (practically no effect))
Barnyard grass [4]
  A (barnyard grass) weedkilling efficacy grade: 3 (weed kill ratio 40% or more, less than 70%)
Bulrush [5]
  B (bulrush) weedkilling efficacy grade: 5 (weed kill ratio 90% or more, (practically complete withering))
oval-leafed pondweed [6]
  C (oval-leafed pondweed) weedkilling efficacy grade: 4 (weed kill ratio 70% or more, less than 90%)
Crabgrass [7]
  D (crabgrass) weedkilling efficacy grade: 5 (weed kill ratio 90% or more, (practically complete withering))
Green foxtail [8]
  E (green foxtail) weedkilling efficacy grade: 5 (weed kill ratio 90% or more, (practically complete withering))
black-grass [9]
  H (black-grass) weedkilling efficacy grade: 5 (weed kill ratio 90% or more, (practically complete withering))
Italian ryegrass [10]
  I (Italian ryegrass) weedkilling efficacy grade: 5 (weed kill ratio 90% or more, (practically complete withering))
Indian mallow [11]
  K (Indian mallow) weedkilling efficacy grade: 0 (weed kill ratio 5% or less (practically no effect))
Redroot pigweed [12]
  L (redroot pigweed) weedkilling efficacy grade: 3 (weed kill ratio 40% or more, less than 70%)
fig-leafed goosefoot [13]
  M (fig-leafed goosefoot) weedkilling efficacy grade: 4 (weed kill ratio 70% or more, less than 90%)
Chickweed [14]
  N (chickweed) weedkilling efficacy grade: 0 (weed kill ratio 5% or less (practically no effect))
birds-eye speedwell [15]
  P (birds-eye speedwell) weedkilling efficacy grade: 5 (weed kill ratio 90% or more, (practically complete withering))
Directly sown rice [16]
  b (directly sown rice) effect on crop grade: 3 (weed kill ratio 40% or more, less than 70%)
Corn [17]
  c (corn) effect on crop grade: 0 (weed kill ratio 5% or less (practically no effect))
Soybean [18]
  d (soybean) effect on crop grade: 0 (weed kill ratio 5% or less (practically no effect))
Wheat [19]
  e (wheat) effect on crop grade: 2 (weed kill ratio 20% or more, less than 40%)
Crabgrass [20]
  D (crabgrass) weedkilling efficacy grade: 5 (weed kill ratio 90% or more, (practically complete withering))
Green foxtail [21]
  E (green foxtail) weedkilling efficacy grade: 5 (weed kill ratio 90% or more, (practically complete withering))
black-grass [22]
  H (black-grass) weedkilling efficacy grade: 5 (weed kill ratio 90% or more, (practically complete withering))
Italian ryegrass [23]
  I (Italian ryegrass) weedkilling efficacy grade: 5 (weed kill ratio 90% or more, (practically complete withering))
Indian mallow [24]
  K (Indian mallow) weedkilling efficacy grade: 4 (weed kill ratio 70% or more, less than 90%)
Redroot pigweed [25]
  L (redroot pigweed) weedkilling efficacy grade: 4 (weed kill ratio 70% or more, less than 90%)
fig-leafed goosefoot [26]
  M (fig-leafed goosefoot) weedkilling efficacy grade: 3 (weed kill ratio 40% or more, less than 70%)
Chickweed [27]
  N (chickweed) weedkilling efficacy grade: 1 (weed kill ratio 5% or more, less than 20%)
catchweed
  O (catchweed) weedkilling efficacy grade: 3 (weed kill ratio 40% or more, less than 70%)
birds-eye speedwell [28]
  P (birds-eye speedwell) weedkilling efficacy grade: 4 (weed kill ratio 70% or more, less than 90%)
Directly sown rice [29]
  b (directly sown rice) effect on crop grade: 4 (weed kill ratio 70% or more, less than 90%)
Corn [30]
  c (corn) effect on crop grade: 1 (weed kill ratio 5% or more, less than 20%)
Soybean [31]
  d (soybean) effect on crop grade: 4 (weed kill ratio 70% or more, less than 90%)
Wheat [32]
  e (wheat) effect on crop grade: 1 (weed kill ratio 5% or more, less than 20%)
beet
  f (beet) effect on crop grade: 0 (weed kill ratio 5% or less (practically no effect))
